# Experimental data as given in ChEMBL document CHEMBL1127021, “Structure-activity relationship of a series of phenylureas linked to 4-phenylimidazole. Novel potent inhibitors of acyl-CoA:cholesterol O-acyltransferase with antiatherosclerotic activity. 2” (J Med Chem, 1993).
# What was measured:
# [1] = biological target: T1, Acyl-CoA:cholesterol acyltransferase (Oryctolagus cuniculus, UniProt Q95214); assay: Tested for inhibition against Acyl coenzyme A:cholesterol acyltransferase derived from rabbit aorta homogenate (>, denotes no effect at the concentration indicated)
# T1 sequence (Q95214 whole entry): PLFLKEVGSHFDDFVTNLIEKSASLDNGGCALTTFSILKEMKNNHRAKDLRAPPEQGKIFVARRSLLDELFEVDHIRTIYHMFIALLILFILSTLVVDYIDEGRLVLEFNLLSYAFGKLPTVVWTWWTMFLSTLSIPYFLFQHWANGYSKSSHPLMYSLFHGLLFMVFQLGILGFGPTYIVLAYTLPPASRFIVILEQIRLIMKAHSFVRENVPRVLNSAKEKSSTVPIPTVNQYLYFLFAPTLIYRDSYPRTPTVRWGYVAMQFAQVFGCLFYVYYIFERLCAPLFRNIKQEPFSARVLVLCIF
# [2] = biological target: T2, O-acyltransferase (Oryctolagus cuniculus, UniProt G1SFD9); assay: Inhibition against acyl coenzyme A:cholesterol acyltransferase derived from rabbit intestine microsomes
# [3] = test system: Rattus norvegicus; assay: Cholesterol lowering activity in rats after a dose of 4 mg/kg once a day for 2 days; type: functional
# [4] = test system: Rattus norvegicus; assay: Cholesterol lowering activity in rats after a dose of 1 mg/kg once a day for 2 days; type: functional
# [5] = biological target: T1, Acyl-CoA:cholesterol acyltransferase; assay: Inhibition against acyl coenzyme A:cholesterol acyltransferase derived from rabbit aorta homogenate; type: tissue-based
# [6] = species: Rattus norvegicus; assay: Tested for hypocholesterolemic activity required to decrease serum total cholesterol; type: functional
# [7] = test system: Rattus norvegicus; assay: Tested for cholesterol lowering activity in rats after a dose of 4 mg/kg once a day for 2 days (at a dose of 1 mg/kg once a day for 2 days); type: functional
# [8] = biological target: T2, O-acyltransferase; assay: Tested for inhibition against Acyl coenzyme A:cholesterol acyltransferase derived from rabbit intestine microsomes (>, denotes no effect at the concentration indicated)
# T2 sequence (G1SFD9 1-524): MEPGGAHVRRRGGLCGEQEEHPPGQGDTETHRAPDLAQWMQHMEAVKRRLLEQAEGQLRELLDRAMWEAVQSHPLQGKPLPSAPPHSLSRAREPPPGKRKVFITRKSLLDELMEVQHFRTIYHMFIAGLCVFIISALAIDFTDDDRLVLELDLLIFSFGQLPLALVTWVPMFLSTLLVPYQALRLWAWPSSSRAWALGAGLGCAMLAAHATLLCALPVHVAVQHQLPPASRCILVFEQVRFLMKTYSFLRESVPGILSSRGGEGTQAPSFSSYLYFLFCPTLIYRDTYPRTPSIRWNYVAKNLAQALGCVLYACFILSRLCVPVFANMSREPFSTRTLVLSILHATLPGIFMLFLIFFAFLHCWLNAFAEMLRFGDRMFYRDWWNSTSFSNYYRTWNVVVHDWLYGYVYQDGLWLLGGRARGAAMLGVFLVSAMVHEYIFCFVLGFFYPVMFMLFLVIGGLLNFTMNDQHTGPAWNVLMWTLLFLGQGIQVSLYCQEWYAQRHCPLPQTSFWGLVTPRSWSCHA
SMILES,IC50 [1],IC50 [2],Cholesterol reduction [3],Cholesterol reduction [4],IC50 [5],ED30 [6],Cholesterol reduction [7],IC50 [8]
CCOCCNC(=O)Nc1c(C)cccc1OCCCn1cnc(-c2ccccc2)c1C,> 1000 nM,340 nM,–,–,–,–,–,–
CCCCCNC(=O)Nc1c(C)cccc1OCCCn1cnc(-c2ccccc2)c1CCC,–,160 nM,-56%,-49%,63 nM,–,–,–
CCCCCNC(=O)Nc1c(OCCCn2cnc(-c3ccccc3)c2C)cccc1N(C)C,–,–,-42%,–,–,1.9 mg/kg,–,–
CCCCCNC(=O)Nc1c(C)cccc1OCCCn1cnc(-c2ccccc2)c1C,–,50 nM,–,-38%,120 nM,–,-51%,–
Cc1cccc(OCCCn2cnc(-c3ccccc3)c2C)c1NC(=O)NCCC(C)C,–,140 nM,-63%,-59%,100 nM,–,–,–
CCCCCNC(=O)Nc1c(C)cccc1OCCCn1cnc(-c2ccccc2)c1C(C)C,–,180 nM,-49%,-30%,31 nM,–,–,–
COCCCNC(=O)Nc1c(C)cccc1OCCCn1cnc(-c2ccccc2)c1C,> 1000 nM,300 nM,–,–,–,–,–,–
CCCCCNC(=O)Nc1c(CO)cccc1OCCCn1cnc(-c2ccccc2)c1C,–,–,–,–,3300 nM,–,–,> 1000 nM
CCCCCNC(=O)Nc1c(C)cccc1OCCCn1cnc(-c2ccccc2)c1CC,–,170 nM,-49%,-28%,79 nM,–,–,–
CCCCCNC(=O)Nc1c(C)cccc1OCCCn1cnc(-c2ccccc2)c1CSC,–,540 nM,-33%,-20%,120 nM,–,–,–
CCCCCNC(=O)Nc1c(C)cccc1OCCCn1cnc(-c2ccccc2)c1COC,–,480 nM,-47%,18%,290 nM,–,–,–
CCCCNC(=O)Nc1c(C)cccc1OCCCn1cnc(-c2ccccc2)c1C(C)C,–,130 nM,–,-52%,12 nM,0.4 mg/kg,–,–
CCCCCNC(=O)Nc1c(C)cccc1OCCCn1cnc(-c2ccccc2)c1,–,250 nM,-52%,-28%,310 nM,–,–,–
CCCCNC(=O)Nc1c(C)cccc1OCCCn1cnc(-c2ccccc2)c1CC,–,–,–,-46%,160 nM,0.5 mg/kg,–,–
CCCCCCCN(Cc1ccc(CC(C)(C)C)cc1)C(=O)Nc1ccc(F)cc1F [CL-277082],–,–,–,–,–,1.5 mg/kg,–,–
